In PMC10387993, “New pyrimidine-N-β-D-glucosides: synthesis, biological evaluation, and molecular docking investigations” (Turkish Journal of Chemistry, 2023):
Converted amounts (≈) assume the structure as drawn. Read-outs that look alike come from different tables or passages of the source.

How the values were obtained:
[1] = system: calf thymus DNA (CT-DNA); conditions: CT-DNA binding experiments in the literature ref [32]–[33]; cited from earlier work
[2] = system: normal FL cells; assay: in vitro; type: cell-based; conditions: FL normal cells, MTT
Protocol: (§1) The cell lines were cultured in a cell medium (Dulbecco’s modified eagle’s or RPMI 1640) enriched with 10% (v/v) fetal bovine serum and 2% (v/v) Penicillin-Streptomycin (10,000 U/mL). First, old medium was removed out of the flask when the cells reached approximately 80% confluence. Next, cells were taken from the flasks surface using trypsin-EDTA solution and then subjected to centrifugation. Following, the cell pellet was suspended with fresh media and was inoculated into wells.
(§2) A cell suspension containing approximately 1 × 10^4 cells in 100 μL was seeded into the wells of 96-well culture plates. […]. The final volume of the wells was set to 200 μL by medium. Cell proliferation assay was evaluated by MTT (yellow tetrazolium MTT (3-(4,5-dimethylthiazolyl-2)-2,5-diphenyltetrazolium bromide) methods. Briefly, an MTT stock solution (5 mg of MTT/mL of distilled water) was filtered and kept at −20 °C until use. The cells were exposed to an MTT reagent (consisting of one parts of MTT stock solutions and nine parts of fresh RPMI 1640 without phenol red) for 4 h to form MTT formazan dye followed by the dye dissolved in DMSO with Sorenson’s buffer for 30 min at room temperature and then the plate was measured at 560 nm, with 690 nm as a reference interval, using a microplate reader. Each experiment was repeated at least three times for each cell line.
(§3) IC50 value is a concentration that inhibits half of the cells in vitro. The half maximal inhibitory concentration (IC50) of the test and control compounds was calculated using XLfit5 or excel spreadsheet and represent in μM at 95% confidence intervals. The proliferation assay results were expressed as the percent inhibition according to the following formula: % Inhibition = [1 - (Absorbance of Treatments /Absorbance of DMSO) × 100]. Three dose response parameters (GI50, TGI, LC50) were calculated according to the following formulas using the absorbance measurements of time zero (Tz), control growth (C), and test growth in the presence of drug (Ti). Growth inhibition of 50% (GI50) was calculated from [(Ti-Tz)/(C-Tz)] × 100 = 50, which is the drug concentration resulting in a 50% reduction in the net growth increase in control cells during the drug incubation. The drug concentration resulting in total growth inhibition (TGI) was calculated from Ti = Tz. The LC50 indicating a net loss of cells following treatment was calculated from [(Ti-Tz)/Tz] × 100 = −50.

[3] = system: A549; assay: cells; type: cell-based; conditions: A549, MTT
Protocol: as §1, §2, §3

[4] = system: MCF7; assay: cells; type: cell-based; conditions: MCF7, MTT
Protocol: as §1, §2, §3

[5] = system: HT29; assay: cells; type: cell-based; conditions: HT29, MTT
Protocol: as §1, §2, §3

[6] = system: Hep3B; assay: cells; type: cell-based; conditions: MTT
Protocol: as §1, §2, §3

[7] = system: HeLa; assay: cells; type: cell-based; conditions: MTT
Protocol: as §1, §2, §3

[8] = system: C6 (Rat brain glioma); assay: cells; type: cell-based; conditions: C6, MTT
Protocol: as §1, §2, §3

[9] = LDH cytotoxic activity assay, FL; type: cell-based; conditions: human, FL cells (normal cells), FL, 25 μg/mL
Protocol: as §1
(§4) Approximately 5 × 10^3 cells in 100 μL were placed into 96-well plates as triplicates and treated with 25, 50, 75, and 100 μg/mL concentrations of test compounds at 37 °C with 5% CO2 for 24 h. LDH activity was obtained by determining absorbance at 492–630 nm using a microplate reader.

[10] = LDH cytotoxic activity assay, A549; type: cell-based; conditions: human, A549 cells, A549, 25 μg/mL
Protocol: as §1, §4

[11] = LDH cytotoxic activity assay, HeLa; type: cell-based; conditions: human, HeLa cells, 25 μg/mL
Protocol: as §1, §4

[12] = LDH cytotoxic activity assay, Hep3B; type: cell-based; conditions: human, Hep3B cells, 25 μg/mL
Protocol: as §1, §4

[13] = LDH cytotoxic activity assay, MCF7; type: cell-based; conditions: human, MCF7 cells, MCF7, 25 μg/mL
Protocol: as §1, §4

[14] = LDH cytotoxic activity assay, C6; type: cell-based; conditions: rat, C6 glioma cells, C6, 25 μg/mL
Protocol: as §1, §4

[15] = LDH cytotoxic activity assay, HT29; type: cell-based; conditions: human, HT29 cells, HT29, 25 μg/mL
Protocol: as §1, §4

N.N.[Cl][Pt][Cl] [Cisplatin, cisplatin, reference compound]
binding constant (Kb) [1]: 57300 M⁻¹
IC50 [2]: 52.79 µg/mL
IC50 [3]: 60.49 µg/mL
IC50 [4]: 63.79 µg/mL
IC50 [5]: 40.39 µg/mL
IC50 [6]: 48.69 µg/mL
IC50 [7]: 50.29 µg/mL
IC50 [8]: 33.08 µg/mL

O=c1[nH]cc(F)c(=O)[nH]1 [Compound 5FU, 5-fluorouracil, reference compound]
binding constant (Kb) [1]: 97000 M⁻¹
cytotoxicity at 24 h, 25 μg/mL [9]: 8.44%
IC50 ([2]; read-out: IC50): 59.1 µg/mL (≈ 454 µM)
cytotoxicity at 24 h, 25 μg/mL [10]: 9.19%
cytotoxicity at 24 h, 25 μg/mL [11]: 8.83%
cytotoxicity at 24 h, 25 μg/mL [12]: 9.67%
cytotoxicity at 24 h, 25 μg/mL [13]: 7.69%
cytotoxicity at 24 h, 25 μg/mL [14]: 10%
IC50 ([3]; Homo sapiens, read-out: IC50): 69.8 µg/mL (≈ 537 µM)
IC50 ([4]; Homo sapiens, read-out: IC50): 74.2 µg/mL (≈ 570 µM)
IC50 ([5]; Homo sapiens, HT-29, read-out: IC50): 65.2 µg/mL (≈ 501 µM)
IC50 ([6]; Homo sapiens, read-out: IC50): 62.9 µg/mL (≈ 483 µM)
IC50 ([7]; Homo sapiens, read-out: IC50): 61.6 µg/mL (≈ 473 µM)
IC50 ([8]; Rattus norvegicus, read-out: IC50): 54.3 µg/mL (≈ 417 µM)
cytotoxicity at 24 h, 25 μg/mL [15]: 7.91%
